The term viability denotes a read-out of living cells in per cent, often relative to untreated cells.

The first data set in a line: in vitro. The conditions noted are these: human, hela cells, % viability.
As for `CCOc1ccccc1C(=O)Nc1cc(C)c2c(=O)oc3ccccc3c2n1` [CBK291240], the viability at 28.5 h, 10 µM was determined as 87.4%.

As to `O=C(CCn1c(C(F)F)cc2cccnc21)NCC1CCCO1` (stereo not shown) [CBK282165], the viability at 28.5 h, 10 µM was 83%.

Regarding `C[C@H]1CNCCN1c1nccnc1Cl` [CBK047524F], the viability at 28.5 h, 10 µM amounted to 88%.

Consider `CCC(C)(C)c1ccc(S(=O)(=O)Nc2n[nH]cc2Br)cc1` [CBK043734], for which the viability at 28.5 h, 10 µM is 85%. On the same count and under the same terms, in the case of `O=C(NC(=S)Nc1ccc(-c2nc3ccccc3o2)c(O)c1)c1cncc(Br)c1` [CBK264931] it was 97%. As to `COc1ccc(CCCC(=O)NCc2ccc(OC3CCNCC3)cc2)cc1OC` [CBK028428T], the viability at 28.5 h, 10 µM worked out at 94.9%. Same read-out and setting: to `O=C(Cn1nc2n(c1=O)CCCCC2)NCc1ccccc1Cl` [CBK304642] belongs 86.6%. Same read-out and setting: to `O=C(c1ccccc1NS(=O)(=O)c1ccc(C(F)(F)F)cc1[N+](=O)[O-])N1CCOCC1` [CBK043353] belongs 84.4%; to `Cc1cc(C2CCCCCN2C(=O)c2ccc(F)cc2)on1` (stereo not shown) [CBK285447], 106%. With `Cc1cccc(-c2ncc(C(=O)NCCCN3CCCC3=O)cc2-c2ccco2)c1` [CBK037455], the viability at 28.5 h, 10 µM turned out to be 96.5%. Same read-out and setting: to `CCNC(=O)[C@H]1CN(Cc2ccccc2)C[C@@H]1C(=O)c1ccccc1` [CBK285265] belongs 88.1%; to `Cc1csc(NC(=O)CN2CC=C(c3ccc(C)o3)CC2)n1` [CBK283606], 96.5%. On to `Cc1cc(=O)n(C)c(=O)n1CCCN1CCCCC1` [CBK027584], for which the viability at 28.5 h, 10 µM came to 115%. The same measure, in the same setting: to `CNc1nc(Cn2ncc(N3CCCN(C)CC3)cc2=O)cs1` [CBK307446] belongs 92.8%; to `Cc1cc2c(cc1S(=O)(=O)NCCOc1cccc(C(=O)O)c1)OCC(=O)N2` [CBK299770], 88.3%. Same read-out and setting: to `CCCCNC(=O)c1nnc(C(=O)Nc2cccc(Cl)c2)s1` [CBK294407] belongs 87.1%; to `COc1ccc2cc3c(nc2c1)OC(=O)N(CC1CC1)C3` [CBK282432], 86.8%; to `O=C(NCc1ccccc1)c1ccc2[nH]c(=O)c(-c3ccccc3)c(O)c2c1` [CBK160318], 84%. The same measure, in the same setting: in the case of `O=C(CSc1ncnc2c1oc1ccccc12)NC1CCCCC1` [CBK287396] it was 95.4%. Consider `Cc1cc2nc(-c3ccccc3)[nH]c2cc1C` [CBK086484], for which the viability at 28.5 h, 10 µM was determined as 80.1%. Same read-out and setting: to `Cc1sc(-c2ccc(Cl)nc2)nc1OC(=O)c1cccs1` [CBK067733] belongs 94.5%. On the same count and under the same terms, to `Cc1ccc(N(C(C)C(=O)Nc2ccccc2C(F)(F)F)S(C)(=O)=O)cc1` (stereo not shown) [CBK268796] belongs 84.5%; to `O=C(Nc1cc(Oc2cccnc2)cc([N+](=O)[O-])c1)c1nn2c(C(F)(F)F)cc(-c3cccs3)nc2c1Br` [CBK262535], 84.7%. As to `Cc1cc(C)nc(SCC(=O)Nc2cc(C(=O)O)cc([N+](=O)[O-])c2)n1` [CBK268937], the viability at 28.5 h, 10 µM came out at 86.8%.

`O=C(NCc1ccc2c(c1)CCCO2)C1CC2C=CC1C21CC1` (stereo not shown) [CBK281503]: the viability at 28.5 h, 10 µM is 89.1%. Same read-out and setting: in the case of `CCn1c2cc(C)oc2c2cn[nH]c(=O)c21` [CBK284230] it was 76.1%. Same read-out and setting: in the case of `Cc1ccc(NC(=O)CSc2nnc(N)[nH]2)cc1` [CBK034301] it was 110%; in that of `COc1ccc([C@H]2CN(Cc3ccccc3)C[C@@H]2NC(=O)c2ccco2)cc1OC` [CBK286478], 88.4%.

For the compound `CC[C@H]1CN(C(=O)c2cccnc2)CC[C@H]1CC(=O)NCc1ccc2c(c1)OCO2` [CBK288771], the viability at 28.5 h, 10 µM was 87.7%. Still for that read-out and setting: to `CC(C)(C)C(=O)NCCn1nc(-c2cccs2)ccc1=O` [CBK283839] belongs 103%. Consider `O=C(CN1CCC(Oc2nccnc2OCc2ccc(Cl)c(Cl)c2)CC1)Nc1ccccc1` [CBK153783], for which the viability at 28.5 h, 10 µM turned out to be 110%.

Take `O=C(Cn1c(-c2cccs2)cc2cccnc21)NC1CC1` [CBK282552]: the viability at 28.5 h, 10 µM turned out to be 101%.

For the compound `Cc1sc2nc(SCc3nc(-c4ccccc4)no3)n(-c3ccccc3)c(=O)c2c1C` [CBK266492], the viability at 28.5 h, 10 µM stood at 110%. For the compound `CCCCOC(=O)c1ccc(NC(=O)c2c(Cl)cccc2Cl)cc1` [CBK263664], the viability at 28.5 h, 10 µM came to 88.2%. Still for that read-out and setting: to `Cc1nc(C2CC(O)C2)cc(N(C)CCOc2cccc(Cl)c2)n1` (stereo not shown) [CBK307691] belongs 94.6%; to `CCOc1ccc(-c2ccc(C#N)c(=S)[nH]2)cc1` [CBK288470], 88.2%.

Take `Cn1nccc1C(=O)C1CCN(C(=O)c2ccccc2F)CC1` [CBK284425]: the viability at 28.5 h, 10 µM worked out at 94.5%. For the compound `CCOC(=O)c1c(NC(=O)CN2CC(C)OC(C)C2)sc2c1CCC(C)C2` (stereo not shown) [CBK264572], the viability at 28.5 h, 10 µM turned out to be 107%. On the same count and under the same terms, in the case of `COc1ccc(C2(C(=O)NCc3ccncc3)CCOCC2)cc1` [CBK287991] it was 103%; in that of `CCOc1ccnc(N2CCN(C(=O)CCc3ccsc3)CC2)n1` [CBK304942], 99.4%; in that of `CCC(C)(C)c1ccc(S(=O)(=O)N2CCN(Cc3cc(C(=O)OC)n(C)c3)CC2)cc1` [CBK062831], 96.3%. Consider `CCCCN(C=O)c1c(CC)nc2ccc(C(=O)Nc3ccc(Cl)c(Cl)c3)cn12` [CBK145470], for which the viability at 28.5 h, 10 µM was 84.1%.

Turning to `Cn1c(S)nnc1-c1ccccc1O` [CBK014577], the viability at 28.5 h, 10 µM was 111%. In the case of `CC(C)(C)OC(=O)N1CCC(NC(=O)c2ccc(-c3ccc(S(C)(=O)=O)cc3)cn2)CC1` [CBK174352], the viability at 28.5 h, 10 µM is 84.8%. With `CC1CCCN(C(=O)c2cc(S(=O)(=O)N3CCOCC3)ccc2Cl)C1` (stereo not shown) [CBK305012], the viability at 28.5 h, 10 µM turned out to be 99.5%. With `COc1ccccc1C1(NC(=O)CCn2nccc2C)CCCC1` [CBK283628], the viability at 28.5 h, 10 µM was found to be 89.7%. Take `CCc1cc(CNC(=O)c2cc(C)nc3c(C)cccc23)on1` [CBK281554]: the viability at 28.5 h, 10 µM was found to be 108%. As for `Nc1cc(C(=O)c2ccc(Br)c(N)c2)ccc1Cl` [CBK269708], the viability at 28.5 h, 10 µM turned out to be 86.6%. Regarding `Cn1c(=O)n(C)c2cc(CNc3ccc(N4CCOCC4)c(C(=O)O)c3)ccc21` [CBK269463], the viability at 28.5 h, 10 µM was determined as 84.7%. As to `COc1ccccc1N1C(=O)CC(N2CCC(C(N)=O)(N3CCCCC3)CC2)C1=O` (stereo not shown) [CBK265533], the viability at 28.5 h, 10 µM stood at 84.3%. The same measure, in the same setting: in the case of `COC(=O)c1ccc(-c2cc3ccccc3o2)nc1` [CBK149228T] it was 85.9%. Still for that read-out and setting: in the case of `Cc1ccc(OCC(=O)Nc2cccc(C(=O)O)c2)cc1` [CBK287023] it was 110%; in that of `CCOC(=O)c1ccc(-c2ccc(C(=O)Nc3ccc(-c4nc5ccccc5o4)c(O)c3)o2)cc1` [CBK263428], 99%. As to `CCOC(=O)c1cnn(C2CCCN(Cc3c(C)n[nH]c3C)C2)c1` (stereo not shown) [CBK304059], the viability at 28.5 h, 10 µM was determined as 88.6%.

For the compound `C[C@@H](Nc1nc(-c2cccc3cccnc23)cnc1N)c1ccccc1` [CBK063784], the viability at 28.5 h, 10 µM is 90%. Regarding `CC(C)(C)C(=O)CN1CCC(C(=O)NC(c2ccccc2)c2ccco2)CC1` (stereo not shown) [CBK148298], the viability at 28.5 h, 10 µM stood at 109%.

Consider `COc1ccc(Cn2nc(NC(=O)Nc3c(C)noc3C)c3ccccc32)cc1` [CBK048528], for which the viability at 28.5 h, 10 µM turned out to be 88.9%.

Regarding `O=C(c1cc(Cl)c[nH]1)N1CCN(Cc2cc(=O)n3ccsc3n2)CC1` [CBK306313], the viability at 28.5 h, 10 µM came out at 92.9%. Still for that read-out and setting: in the case of `O=C(NC[C@H]1CC[C@H](C(=O)O)CC1)c1cc2ccccc2[nH]1` [CBK287069] it was 105%. Consider `Cc1[nH]c2ccccc2c1C(=O)CSc1nc2ccccc2o1` [CBK266339], for which the viability at 28.5 h, 10 µM is 100%. In the case of `c1ccc2oc(-c3cncc(NCCc4c[nH]c5ccccc45)n3)cc2c1` [CBK066068], the viability at 28.5 h, 10 µM is 93.1%.

`CCN1CCCC1CNC(=O)C1(O)c2ccccc2NC(=O)N1c1ccccc1` (stereo not shown) [CBK288554]: the viability at 28.5 h, 10 µM turned out to be 90.5%. Turning to `CNC(=O)C1(Cc2cccc(-c3cccs3)c2)CCN(C(=O)c2ccccc2)CC1` [CBK285720], the viability at 28.5 h, 10 µM worked out at 88.3%.

As to `CC(C)(C)C(=O)c1cnc2sc3ccccc3n12` [CBK016512], the viability at 28.5 h, 10 µM worked out at 91.6%. Still for that read-out and setting: to `O=C1CC(/C=C/c2ccccc2)Cc2[nH]c(=O)c(C(=O)O)cc21` (stereo not shown) [CBK286933] belongs 92.9%. Same read-out and setting: in the case of `CCN1c2ccc(-c3cncn3CCCn3ccnc3C)cc2CC1C` (stereo not shown) [CBK281924] it was 90.7%.

As to `CC(NS(=O)(=O)N(C)C)c1ccccc1` (stereo not shown) [CBK263819], the viability at 28.5 h, 10 µM is 96.6%. As to `O=C(NC(c1ccc(Cl)cc1)c1ccsc1)C1CCN(CCc2ccc(F)cc2)CC1` (stereo not shown) [CBK147976], the viability at 28.5 h, 10 µM turned out to be 88.4%. On to `COc1ccc2c(c1)OC1(CCN(C(=O)C3CCCC3)CC1)CC2O` (stereo not shown) [CBK286400], for which the viability at 28.5 h, 10 µM came out at 84.4%. The same measure, in the same setting: to `c1ccc(-c2nc3sc4c(ncn5cnnc45)c3c3c2CCC3)cc1` [CBK269566] belongs 84.3%. Same read-out and setting: in the case of `CC(=O)NC(c1ccccn1)C1CCCN(C(=O)C2CC2)C1` (stereo not shown) [CBK285040] it was 100%; in that of `O=C(O)[C@H]1CN(C(=O)c2cccs2)C[C@@H]1c1ccccc1F` [CBK283819], 87.1%. For the compound `Clc1cc2nc(OC3CCCNC3)c(N3CCCC3)nc2cc1Cl` (stereo not shown) [CBK113454], the viability at 28.5 h, 10 µM came to 108%.

For the compound `COC(=O)c1sccc1NC(=O)c1ccccc1Cl` [CBK066860], the viability at 28.5 h, 10 µM was 65.5%. Still for that read-out and setting: to `CC1(C)CC(=O)C2=C(C1)Nc1ccccc1N(C(=S)NCc1ccco1)C2c1cccnc1` (stereo not shown) [CBK267342] belongs 89.4%.

For `CC(C)COc1ccc(-c2nn(-c3ccccc3)cc2CSC(=N)N)cc1` [CBK264278C], the viability at 28.5 h, 10 µM was found to be 0.298%. With `Cc1cc(-c2nnc(SCc3ccc(Cl)cc3)n2C)no1` [CBK067720], the viability at 28.5 h, 10 µM came to 112%.

With `CN(C1CCCCC1)S(=O)(=O)c1cc(Cl)ccc1Cl` [CBK261744], the viability at 28.5 h, 10 µM turned out to be 118%.

The same data set, now with this note: human, hela cells, % viability, bulk resorufin, single well.
As to `COc1cc(CNC(=O)c2cccc(-c3ccc4c(c3)COC3(CCNCC3)O4)c2)cc(OC)c1OC` [CBK110087], the viability at 28.5 h, 10 µM stood at 87.8%.

These data come from article PMC12040169 (PLOS Biology, 2025).
